Data set [1] relates to HEL299 cells. As to conditions: minimum cytotoxic concentration, microscopically detectable alteration of cell morphology.
Protocol: (§1) Cells were seeded at a rate of 5 × 10^3 cells/well into 96-well plates and allowed to proliferate for 24 h. Then, a medium containing different concentrations of the test compounds, starting at 100 mM, was added. After 3 days of incubation at 37 °C, the cell count was determined with a Beckman Coulter counter or, alternatively, cell viability was determined with the colorimetric formazan-based MTS assay. […] The cytotoxic effects of the compounds were also assessed by evaluating the MCC (minimum cytotoxic concentration that causes a microscopically detectable alteration of cell morphology).
A short description of data set [2]: Cell growth inhibition in HEL299 cells, Coulter Counter. It is filed as cell-based. As to conditions: human, 3 days of cell growth, read-out: Cytotoxicity Cell Growth (CC50).
Protocol: as §1
Data set [3] has as its system TK+ VZV strain OKA. As to the kind of experiment: microbe, parasite or virus in culture. It is filed as cell-based, Varicella zoster virus. As to conditions: Human alphaherpesvirus 3, HEL 299, read-out: Antiviral Activity (EC50) TK+ VZV Strain OKA.
The subject of data set [4] is TK- VZV strain 07-1. Kind of data set: microbe, parasite or virus in culture. The conditions noted are these: Human alphaherpesvirus 3, HEL 299, read-out: Antiviral Activity (EC50) TK− VZV Strain 07-1.
The test system of data set [5] is SARS-CoV-2 UC-1074 (Wuhan). Kind of data set: Cytopathic effect reduction, SARS-CoV-2 UC-1074 (Wuhan) in Vero cells. It is filed as cell-based. As to conditions: Severe acute respiratory syndrome coronavirus 2, UC1074, CPE reduced by 50%, 100 TCID50, read-out: Antiviral Activity (EC50) UC-1074 (Wuhan). On the technique in general: Damage to the host cells serves as the signal in cytopathic effect assays.

In data set [6] the test system is HCoV OC43. Kind of data set: Cytopathic effect reduction, HCoV OC43. It is filed as cell-based, Human coronavirus OC43. As to conditions: Betacoronavirus 1, OC43; reduction of virus-induced cytopathic effect by 50%; virus input 100 TCID50; read-out: Antiviral Activity (EC50) HCoV OC43.
The subject of data set [7] is HCoV 229E. Kind of data set: Cytopathic effect reduction, HCoV 229E. As to conditions: Human coronavirus 229E; reduction of virus-induced cytopathic effect by 50%; virus input 100 TCID50; read-out: Antiviral Activity (EC50) HCoV 229E. In kind it is cell-based, Human coronavirus 229E.
A short description of data set [8]: Cytotoxicity in Huh7 cells, MTS assay. In kind it is cell-based, Human. As to conditions: human, Huh7 cells, cell growth reduced by 50%. A general note: Tetrazolium assays rely on reduction of a dye to a coloured formazan, in cell work by metabolically active cells.
Protocol: as §1
In data set [9] the test system is SARS-CoV-2 B1.1 529 BA.1 (Omicron). Kind of data set: Cytopathic effect reduction, SARS-CoV-2 B1.1 529 BA.1 (Omicron) in Vero cells. In kind it is cell-based. The conditions noted are these: Severe acute respiratory syndrome coronavirus 2, CPE reduced by 50%, read-out: Antiviral Activity (EC50) B1.1 529 BA.1 (Omicron).
The test system of data set [10] is HCoV NL63. Kind of data set: Cytopathic effect reduction, HCoV NL63. In kind it is cell-based, Human coronavirus NL63. As to conditions: Human coronavirus NL63; reduction of virus-induced cytopathic effect by 50%; virus input 100 TCID50; read-out: Antiviral Activity (EC50) HCoV NL63.
The test system of data set [11] is RSV (Long). Kind of data set: Cytopathic effect reduction, RSV (Long). It is filed as cell-based, Respiratory syncytial virus. As to conditions: human respiratory syncytial virus; reduction of virus-induced cytopathic effect by 50%; virus input 100 TCID50; read-out: Antiviral Activity (EC50) RSV Long.
Data set [12] can be described thus: Cytotoxicity in HEL299 cells, MTS assay. It is filed as cell-based, Human. The conditions noted are these: human, HEL299 cells, cell growth reduced by 50%.
Protocol: as §1
Data set [13] concerns the target T1, SARS-CoV-2 N-protein and stem-loop vgRNA fragment condensates (Severe acute respiratory syndrome coronavirus 2, UniProt P0DTC9).
T1 construct: His-tag; made in house
Kind of data set: Cell-free LLPS assay, N-protein:vgRNA condensates. In kind it is biochemical. As to conditions: 20 µM compound.

Data set [14] relates to Vero cells. The conditions noted are these: minimum cytotoxic concentration, microscopically detectable alteration of cell morphology.
Data set [15] concerns the target SARS-CoV-2 RdRp (nsp12, nsp7-nsp8) (Severe acute respiratory syndrome coronavirus 2, UniProt P0DTD1). As to the kind of experiment: In vitro transcription assay with SARS-CoV-2 RdRp. As to conditions: RdRp 1 µM, RNA substrate 25 nM, 100 µM NTPs, 30 °C; read-out: IC50, inhibition of RdRp activity (RNA primer extension). In kind it is biochemical.
Data set [16] can be described thus: in vitro. As to conditions: green monkey.
Data set [17] concerns SARS-CoV-2 860-J1 (Delta). Kind of data set: Cytopathic effect reduction, SARS-CoV-2 860-J1 (Delta) in Vero cells. In kind it is cell-based. As to conditions: Severe acute respiratory syndrome coronavirus 2, CPE reduced by 50%, 100 TCID50, read-out: Antiviral Activity (EC50) 860-J1 (Delta).
In data set [18] the test system is SARS-CoV-2 NVDBB-2220 (UK). Kind of data set: Cytopathic effect reduction, SARS-CoV-2 NVDBB-2220 (UK) in Vero cells. As to conditions: Severe acute respiratory syndrome coronavirus 2, CPE reduced by 50%, 100 TCID50, read-out: Antiviral Activity (EC50) NVDBB-2220 (UK). In kind it is cell-based.

`Nc1nc2c(ncn2COCCO)c(=O)[nH]1` [Aciclovir, reference compound]: the “Cytotoxicity Cell Morphology (MCC)” value in [1] is recorded as greater than 100 μM. Also, the CC50 at 3 days in [2] was greater than 100 µM.
Turning to `O=c1[nH]c(=O)n([C@H]2C[C@H](O)[C@@H](CO)O2)cc1/C=C/Br` [Brivudine, reference compound], the “Cytotoxicity Cell Morphology (MCC)” value in data set [1] is given as greater than 100 μM. The EC50 is 0.1 ± 0.07 µM in [3] and 0.14 ± 0.03 µM in [4]. Besides, in [2], the CC50 at 3 days was greater than 100 µM.
Broadly, the IC50 is the concentration at which inhibition is half-maximal. For the compound `COc1ccc(C(OC[C@H]2O[C@@H](n3ccc4nc5cc(O)ccc5n4c3=O)[C@H](O)[C@@H]2O)(c2ccccc2)c2ccc(OC)cc2)cc1` [Compound 3b, 2-((2R,3R,4S,5R)-5-((bis(4-methoxyphenyl)(phenyl)methoxy)methyl)-3,4-dihydroxytetrahydrofuran-2-yl)-7-hydroxybenzo[4,5]imidazo[1,2-c]pyrimidin-1(2H)-one], the EC50 is greater than 20 µM in data set [5]; less than 0.8 µM in data set [6]; 4.1 ± 2 µM in [7]; greater than 4 µM in [3]; greater than 20 µM in data set [9]; greater than 100 µM in data set [10]. In addition, the EC50 in data set [11] was 5.7 ± 0.8 µM; in [4], greater than 4 µM. For the same compound, the CC50 at 3 days in [8] was less than 0.8 µM; in data set [12], greater than 20 µM. Moreover, the “Cytotoxicity Cell Morphology (MCC)” value in data set [1] and in data set [14] was 20 μM in each case. In [13], the “effect on LLPS / condensates (summary in words)” value was “minor”. Also, the IC50 in data set [15] came to 95 ± 4 µM.
For `CCCCCCCCCCOc1ccc2c(c1)nc1cc[nH]c(=O)n12` [Compound 6d, 7-(decyloxy)benzo[4,5]imidazo[1,2-c]pyrimidin-1(2H)-one], the EC50 in data set [6], in data set [7], in data set [10] and in data set [11] was greater than 100 µM each time. The CC50 at 3 days in data set [8] and in data set [12] was greater than 100 µM throughout.
Take `CCCCCCCCCCCCOc1ccc2c(c1)nc1cc[nH]c(=O)n12` [Compound 6e, 7-(dodecyloxy)benzo[4,5]imidazo[1,2-c]pyrimidin-1(2H)-one]: the EC50 in [6], in data set [7], in data set [10] and in data set [11] was greater than 100 µM throughout. The CC50 at 3 days in data set [8] and in data set [12] was greater than 100 µM in each case.
As for `COc1ccc(C(OC[C@H]2O[C@@H](n3ccc4nc5cc(OC)ccc5n4c3=O)[C@H](O)[C@@H]2O)(c2ccccc2)c2ccc(OC)cc2)cc1` [Compound 7b, 2-((2R,3R,4S,5R)-5-((bis(4-methoxyphenyl)(phenyl)methoxy)methyl)-3,4-dihydroxytetrahydrofuran-2-yl)-7-methoxybenzo[4,5]imidazo[1,2-c]pyrimidin-1(2H)-one], the EC50 was greater than 20 µM in data set [5], 30.7 ± 4.68 µM in data set [3], greater than 20 µM in [9] and 7.13 ± 0.94 µM in data set [4]. In addition, the “Cytotoxicity Cell Morphology (MCC)” value in data set [1] was no less than 100 μM; in [14], greater than 100 μM. In addition, the CC50 at 3 days in data set [2] was determined as 10.3 ± 5.63 µM.
Take `COc1ccc2c(c1)nc1ccn([C@H]3C[C@H](O)[C@@H](CO)O3)c(=O)n12` [Compound 8a, 2-((2R,4S,5R)-4-hydroxy-5-(hydroxymethyl)tetrahydrofuran-2-yl)-7-methoxybenzo[4,5]imidazo[1,2-c]pyrimidin-1(2H)-one]: the EC50 in data set [5], in data set [3], in [9] and in [4] was greater than 20 µM each time. The “Cytotoxicity Cell Morphology (MCC)” value in [1] and in [14] was 100 μM throughout.
In the case of `COc1ccc2c(c1)nc1ccn([C@@H]3O[C@H](CO)[C@@H](O)[C@H]3O)c(=O)n12` [Compound 8b, 2-((2R,3R,4S,5R)-3,4-dihydroxy-5-(hydroxymethyl)tetrahydrofuran-2-yl)-7-methoxybenzo[4,5]imidazo[1,2-c]pyrimidin-1(2H)-one], the EC50 in data set [5], in [3], in data set [9] and in [4] was greater than 20 µM in each case. Also, the “Cytotoxicity Cell Morphology (MCC)” value in data set [1] and in [14] was 100 μM throughout.
In the case of `COc1ccc(C(OC[C@H]2O[C@@H](n3ccc(N)nc3=O)C[C@@H]2O)(c2ccccc2)c2ccc(OC)cc2)cc1` [Compound 9a, 4-amino-1-((2R,4S,5R)-5-((bis(4-methoxyphenyl)(phenyl)methoxy)methyl)-4-hydroxytetrahydrofuran-2-yl)pyrimidin-2(1H)-one], the EC50 in [5] was greater than 100 µM; in data set [3], greater than 20 µM; in data set [9], greater than 100 µM; in data set [4], greater than 20 µM. Further, the figures for the “Cytotoxicity Cell Morphology (MCC)” value in data set [1] and in [14] were 100 μM and greater than 100 μM, respectively. In addition, in data set [13], the “effect on LLPS / condensates (summary in words)” value was “reduced droplet density but did not prevent LLPS”. In addition, the “decrease in the partitioning coefficient” value in data set [13] (3 µM N-protein, 6 µM RNA) was “approximately 4 fold”.
Consider `COc1ccc(C(OC[C@H]2O[C@@H](n3ccc(N)nc3=O)[C@H](O)[C@@H]2O)(c2ccccc2)c2ccc(OC)cc2)cc1` [Compound 9b, 4-amino-1-((2R,3R,4S,5R)-5-((bis(4-methoxyphenyl)(phenyl)methoxy)methyl)-3,4-dihydroxytetrahydrofuran-2-yl)pyrimidin-2(1H)-one], for which the EC50 in [5] was greater than 20 µM; in [3], greater than 4 µM; in data set [9], greater than 20 µM; in data set [4] it was greater than 20 µM. In addition, the “Cytotoxicity Cell Morphology (MCC)” value in data set [1] is reported as no less than 20 μM; in data set [14], 100 μM.
For `CC(C)C(=O)OC[C@H]1O[C@@H](n2ccc(NO)nc2=O)[C@H](O)[C@@H]1O` [Molnupiravir], the EC50 was found to be 5.52 ± 0.28 µM in data set [5], 5.2 ± 0.23 µM in data set [9], 5.78 ± 0.29 µM in [17] and 3.08 ± 2.12 µM in data set [18]. Also, in [16], the CC50 is greater than 100 µM. Further, in data set [14], the “Cytotoxicity Cell Morphology (MCC)” value is on record as greater than 100 μM.
As for `CCC(CC)COC(=O)[C@H](C)N[P@](=O)(OC[C@H]1O[C@@](C#N)(c2ccc3c(N)ncnn23)[C@H](O)[C@@H]1O)Oc1ccccc1` [Remdesivir, reference compound], the EC50 stood at 1.96 ± 1 µM in data set [5]; 0.03 µM in data set [6]; 0.03 µM in data set [7]; 0.91 ± 0.17 µM in data set [9]; 0.03 µM in data set [10]; 0.02 µM in [11]. In addition, the EC50 in data set [17] was 3.23 ± 0.61 µM; in data set [18], 0.72 ± 0.15 µM. In addition, the CC50 at 3 days in data set [8] and in [12] was greater than 10 µM throughout. The compound further returned a CC50 in data set [16] of no less than 40 µM. Besides, in data set [14], the “Cytotoxicity Cell Morphology (MCC)” value is no less than 40 μM.

For the origin of these results see PMC10572855, “Phenotypic Test of Benzo[4,5]imidazo[1,2-c]pyrimidinone-Based Nucleoside and Non-Nucleoside Derivatives against DNA and RNA Viruses, Including Coronaviruses” (International Journal of Molecular Sciences, 2023).
